Laboratory results: patent US4539322A, “Dihydropyridine derivatives and their use in treating heart conditions and hypertension” (Pfizer Inc., priority 1982, dated 1985)
Counter-ions that a name gives are not always drawn.

Tested on: rat aorta
Assay: Inhibition of calcium-induced contraction of isolated rat aorta strips (reduction of response to added calcium chloride in K+-containing saline)
Format: cell-based
Details: 0.75 h; spirally cut rat aorta strips, 45 millimolar potassium, calcium 2 millimolar, test repeated with compound after 45 minutes; read-out: molar concentration of the compounds required to reduce the response by 50% (IC50)
Description: The ability of the compounds to inhibit the movement of calcium into the cell is shown by their effectiveness in reducing the response of isolated heart tissue to an increase in calcium ion concentration in vitro. The test is performed by mounting spirally cut strips of rat aorta with one end fixed and the other attached to a force transducer. The tissue is immersed in a bath of physiological saline solution containing potassium ion s at a concentration of 45 millimolar and no calcium. Calcium chloride is added to the bath with a pipette to give a final calcium ion concentration of 2 millimolar. The change in tension caused by the resulting contraction of the tissue is noted. The bath is drained and replaced with fresh saline solution and, after 45 minutes, the test is repeated with the particular compound under test present in the saline solution. The concentration of compound required to reduce the response by 50% is recorded.

## CCOC(=O)C1=C(COCCN2CCN(C(=NC)NC#N)CC2)NC(C)=C(C(=O)OC)C1c1ccccc1Cl (stereo not shown) [Example 1, 4-(2-chlorophenyl)-2-[2-[4-(N-cyano-N'-methyl-amidino)piperazin-1-yl]ethoxymethyl]-3-ethoxycarbonyl-5-methoxy-carbonyl-6-methyl-1,4-dihydropyridine, oxalate salt]
  IC50: 0.01 µM

## CCOC(=O)C1=C(COCCN2CCN(C(=NC#N)N3CCCC3)CC2)NC(C)=C(C(=O)OC)C1c1ccccc1Cl (stereo not shown) [Example 2]
  IC50: 0.014 µM

## CCOC(=O)C1=C(COCCN2CCN(C(=NC#N)NC(C)C)CC2)NC(C)=C(C(=O)OC)C1c1ccccc1Cl (stereo not shown) [Example 3]
  IC50: 0.01 µM

## CCOC(=O)C1=C(COCCN2CCN(C(=NC#N)N(C)C)CC2)NC(C)=C(C(=O)OC)C1c1ccccc1Cl (stereo not shown) [Example 4]
  IC50: 0.007 µM

## CCOC(=O)C1=C(COCCN2CCN(C(N)=NC#N)CC2)NC(C)=C(C(=O)OC)C1c1ccccc1Cl (stereo not shown) [Example 5]
  IC50: 0.1 µM

## CCOC(=O)C1=C(COCCN2CCN(C(=NC#N)NCCN(C)C)CC2)NC(C)=C(C(=O)OC)C1c1ccccc1Cl (stereo not shown) [Example 6]
  IC50: 0.1 µM

## CCOC(=O)C1=C(COCCN2CCN(C(=NS(C)(=O)=O)NC)CC2)NC(C)=C(C(=O)OC)C1c1ccccc1Cl (stereo not shown) [Example 7]
  IC50: 0.1 µM

## CCOC(=O)C1=C(COCCN2CCN(C(=NS(=O)(=O)c3ccccc3)NC)CC2)NC(C)=C(C(=O)OC)C1c1ccccc1Cl (stereo not shown) [Example 8]
  IC50: 0.0186 µM

## CCOC(=O)C1=C(COCCN2CCN(C(=NC#N)NC)CC2)NC(C)=C(C(=O)OC)C1c1cccc(Cl)c1Cl (stereo not shown) [Example 9]
  IC50: 0.0151 µM

## CCOC(=O)C1=C(COCCN2CCN(C(=S)NC)CC2)NC(C)=C(C(=O)OC)C1c1ccccc1Cl (stereo not shown) [Example 10, 4-(2-chlorophenyl)-3-ethoxycarbonyl-5-methoxy-carbonyl-6-methyl-2-[2-(4-(N-methylthiocarbamoyl)-piperazin-1-yl)ethoxymethyl]-1,4-dihydropyridine, hydrochloride salt]
  IC50: 0.0063 µM

## CCOC(=O)NC(=S)N1CCN(CCOCC2=C(C(=O)OCC)C(c3ccccc3Cl)C(C(=O)OC)=C(C)N2)CC1 (stereo not shown) [Example 11]
  IC50: 0.0138 µM

## CCOC(=O)C1=C(COCCN2CCN(C(=O)NC(C)(C)C)CC2)NC(C)=C(C(=O)OC)C1c1ccccc1Cl (stereo not shown) [Example 12]
  IC50: 0.002 µM

## CCOC(=O)C1=C(COCCN2CCN(C(=O)NC)CC2)NC(C)=C(C(=O)OC)C1c1ccccc1Cl (stereo not shown) [Example 13]
  IC50: 0.006 µM

## CCOC(=O)C1=C(COCCN2CCN(C(N)=O)CC2)NC(C)=C(C(=O)OC)C1c1ccccc1Cl (stereo not shown) [Example 14]
  IC50: 0.00372 µM

## CCOC(=O)C1=C(COCCN2CCN(C(=O)Nc3ccccc3)CC2)NC(C)=C(C(=O)OC)C1c1ccccc1Cl (stereo not shown) [Example 15]
  IC50: 0.00501 µM

## CCOC(=O)C1=C(COCCN2CCN(C(=O)NS(=O)(=O)c3ccc(C)cc3)CC2)NC(C)=C(C(=O)OC)C1c1ccccc1Cl (stereo not shown) [Example 16]
  IC50: 0.251 µM

## CCOC(=O)CNC(=O)N1CCN(CCOCC2=C(C(=O)OCC)C(c3ccccc3Cl)C(C(=O)OC)=C(C)N2)CC1 (stereo not shown) [Example 17]
  IC50: 0.097 µM

## CCOC(=O)C1=C(COCCN2CCN(C(=O)NC3CC3)CC2)NC(C)=C(C(=O)OC)C1c1ccccc1Cl (stereo not shown) [Example 18]
  IC50: 0.00692 µM

## CCCCNC(=O)N1CCN(CCOCC2=C(C(=O)OCC)C(c3ccccc3Cl)C(C(=O)OC)=C(C)N2)CC1 (stereo not shown) [Example 19]
  IC50: 0.0158 µM

## CCOC(=O)C1=C(COCCN2CCN(C(=O)Nc3ccc(C(=O)OCC)cc3)CC2)NC(C)=C(C(=O)OC)C1c1ccccc1Cl (stereo not shown) [Example 20]
  IC50: 0.0331 µM

## CCOC(=O)C1=C(COCCN2CCN(C(=O)Nc3ccc(F)cc3)CC2)NC(C)=C(C(=O)OC)C1c1ccccc1Cl (stereo not shown) [Example 21]
  IC50: 0.0219 µM

## CCOC(=O)C1=C(COCCN2CCN(C(=O)NC(C)C)CC2)NC(C)=C(C(=O)OC)C1c1ccccc1Cl (stereo not shown) [Example 22]
  IC50: 0.0024 µM

## CCOC(=O)C1=C(COCCN2CCN(C(=O)NC3CCCCC3)CC2)NC(C)=C(C(=O)OC)C1c1ccccc1Cl (stereo not shown) [Example 23]
  IC50: 0.00851 µM

## CCOC(=O)C1=C(COCCN2CCN(C(=O)Nc3cccnc3)CC2)NC(C)=C(C(=O)OC)C1c1ccccc1Cl (stereo not shown) [Example 24]
  IC50: 0.0145 µM

## CCCNC(=O)N1CCN(CCOCC2=C(C(=O)OCC)C(c3ccccc3Cl)C(C(=O)OC)=C(C)N2)CC1 (stereo not shown) [Example 25]
  IC50: 0.00776 µM

## CCOC(=O)C1=C(COCC(C)N2CCN(C(=O)NC)CC2)NC(C)=C(C(=O)OC)C1c1ccccc1Cl (stereo not shown) [Example 26]
  IC50: 0.0135 µM

## CCNC(=O)N1CCN(C(C)COCC2=C(C(=O)OCC)C(c3ccccc3Cl)C(C(=O)OC)=C(C)N2)CC1 (stereo not shown) [Example 27]
  IC50: 0.021 µM

## CCOC(=O)C1=C(COCC(C)N2CCN(C(=O)NC(C)C)CC2)NC(C)=C(C(=O)OC)C1c1ccccc1Cl (stereo not shown) [Example 28]
  IC50: 0.0093 µM

## CCOC(=O)C1=C(COCC(C)(C)N2CCN(C(=O)NC)CC2)NC(C)=C(C(=O)OC)C1c1ccccc1Cl (stereo not shown) [Example 29]
  IC50: 0.015 µM

## CCOC(=O)C1=C(COCCN2CCN(C(=O)NC)CC2)NC(C)=C(C(=O)OC)C1c1ccccc1C(F)(F)F (stereo not shown) [Example 30]
  IC50: 0.011 µM

## CCOC(=O)C1=C(COCCN2CCN(C(=O)NC)CC2)NC(C)=C(C(=O)OC)C1c1cccc(Cl)c1Cl (stereo not shown) [Example 31]
  IC50: 0.0025 µM

## CCOC(=O)C1=C(COCCN2CCN(C(=O)NC)CC2)NC(C)=C(C(=O)OC)C1c1cc(Cl)cc(Cl)c1 (stereo not shown) [Example 32]
  IC50: 0.05 µM

## CCOC(=O)C1=C(COCCN2CCN(C(=O)NC)CC2)NC(C)=C(C(=O)OC)C1c1c(Cl)cccc1Cl (stereo not shown) [Example 33]
  IC50: 0.025 µM

## CCOC(=O)C1=C(COCCN2CCN(C(=O)NC)CC2)NC(C)=C(C(=O)OC)C1c1cccc(Cl)c1 (stereo not shown) [Example 34]
  IC50: 0.0178 µM

## CCOC(=O)C1=C(COCCN2CCN(C(=O)NC)CC2)NC(C)=C(C(=O)OC)C1c1ccccc1F (stereo not shown) [Example 35]
  IC50: 0.0195 µM

## CCOC(=O)C1=C(COCCN2CCN(C(=O)NC)CC2)NC(C)=C(C(=O)OC)C1c1nccs1 (stereo not shown) [Example 36]
  IC50: 1 µM

## CCOC(=O)C1=C(COCCN2CCN(C(N)=O)CC2)NC(C)=C(C(=O)OC)C1c1cccc(Cl)c1Cl (stereo not shown) [Example 37]
  IC50: 0.0079 µM

## CCOC(=O)C1=C(COCCN2CCN(CC(=O)Nc3c(C)cccc3C)CC2)NC(C)=C(C(=O)OC)C1c1ccccc1Cl (stereo not shown) [Example 38, 4-(2-chlorophenyl)-2-[2-[4-(N-[2,6-dimethylphenyl]carbamoylmethyl)piperazin-1-yl]ethoxymethyl]-3-ethoxycarbonyl-5-methoxycarbonyl-6-methyl-1,4-dihydropyridine]
  IC50: 0.0204 µM

## CCOC(=O)C1=C(COCCN2CCN(CC(=O)OC)CC2)NC(C)=C(C(=O)OC)C1c1ccccc1Cl (stereo not shown) [Example 39]
  IC50: 0.0105 µM

## CCOC(=O)C1=C(COCCN2CCN(CC(N)=O)CC2)NC(C)=C(C(=O)OC)C1c1ccccc1Cl (stereo not shown) [Example 40]
  IC50: 0.0105 µM

## CCOC(=O)C1=C(COCCN2CCN(C(=O)N(C)C)CC2)NC(C)=C(C(=O)OC)C1c1ccccc1Cl (stereo not shown) [Example 41, 4-(2-chlorophenyl)-2-[2-(4-[N,N-dimethylcarbamoyl]-piperazin-1-yl)ethoxymethyl]-3-ethoxycarbonyl-5-methoxycarbonyl-6-methyl-1,4-dihydropyridine, hydrochloride salt]
  IC50: 0.0129 µM

## CCOC(=O)C1=C(COCCN2CCN(S(=O)(=O)N(C)C)CC2)NC(C)=C(C(=O)OC)C1c1ccccc1Cl (stereo not shown) [Example 42]
  IC50: 0.049 µM

## CCOC(=O)C1=C(COCCN2CCN(S(C)(=O)=O)CC2)NC(C)=C(C(=O)OC)C1c1ccccc1Cl (stereo not shown) [Example 43]
  IC50: 0.0158 µM

## CCOC(=O)C1=C(COCCN2CCN(C(=O)c3ccco3)CC2)NC(C)=C(C(=O)OC)C1c1ccccc1Cl (stereo not shown) [Example 44]
  IC50: 0.0851 µM

## CCOC(=O)C(=O)N1CCN(CCOCC2=C(C(=O)OCC)C(c3ccccc3Cl)C(C(=O)OC)=C(C)N2)CC1 (stereo not shown) [Example 45]
  IC50: 0.01 µM

## CCOC(=O)C1=C(COCCN2CCN(C(=O)COC)CC2)NC(C)=C(C(=O)OC)C1c1ccccc1Cl (stereo not shown) [Example 46]
  IC50: 0.0063 µM

## CCOC(=O)C1=C(COCCN2CCN(C(=O)c3cccnc3)CC2)NC(C)=C(C(=O)OC)C1c1ccccc1Cl (stereo not shown) [Example 48]
  IC50: 0.0132 µM

## CCOC(=O)C1=C(COCCN2CCN(C(=O)OCC)CC2)NC(C)=C(C(=O)OC)C1c1ccccc1Cl (stereo not shown) [Example 49]
  IC50: 0.01 µM

## CCOC(=O)C1=C(COCCN2CCN(C(=O)N3CCOCC3)CC2)NC(C)=C(C(=O)OC)C1c1ccccc1Cl (stereo not shown) [Example 50]
  IC50: 0.0059 µM

## CCOC(=O)C1=C(COCCN2CCN(C=O)CC2)NC(C)=C(C(=O)OC)C1c1ccccc1Cl (stereo not shown) [Example 51, 4-(2-chlorophenyl)-3-ethoxycarbonyl-2-[2-(4-formylpiperazin-1-yl)ethoxymethyl]-5-methoxycarbonyl-6-methyl-1,4-dihydropyridine, bisoxalate salt]
  IC50: 0.00794 µM

## CCOC(=O)C1=C(COCCN2CCN(C(=O)CC(C)=O)CC2)NC(C)=C(C(=O)OC)C1c1ccccc1Cl (stereo not shown) [Example 52, 2-[2-(4-acetoacetylpiperazin-1-yl)ethoxymethyl]-4-(2-chlorophenyl)-3-ethoxycarbonyl-5-methoxycarbonyl-6-methyl-1,4-dihydropyridine, hydrochloride hydrate]
  IC50: 0.0098 µM

## CCOC(=O)C1=C(COCCN2CCN(S(N)(=O)=O)CC2)NC(C)=C(C(=O)OC)C1c1ccccc1Cl (stereo not shown) [Example 53, 4-(2-chlorophenyl)-3-ethoxycarbonyl-5-methoxycarbonyl-6-methyl-2-[2-(4-sulphamoylpiperazin-1-yl)ethoxymethyl]-1,4-dihydropyridine, hydrochloride hydrate]
  IC50: 0.0417 µM
